Source: patent publication US9045524B2, “Selective caspase inhibitors and uses thereof” (NOVAGENESIS FOUNDATION, priority 2009, dated 2015)
Read-outs that look alike come from different tables or passages of the source. Peptide text beside a SMILES is read from it. * marks the point of attachment. Cbz = O=C(OCc1ccccc1)*; CH2F = FC*

Tests used:
[1] = target: Caspase-4 (Homo sapiens (Human), UniProt P49662); assay: Fluorometric enzymatic assay, active recombinant Caspase-4
Procedure: (§3) Each dilution of the test compounds was tested in duplicates, whereas the DMSO or Z-VAD-FMK controls were tested in triplicates. […] The inhibition efficiency and the IC50 values of the test compounds were then determined by comparing the fluorescence intensity (FI) of the test compounds with that of the DMSO control.

[2] = test system: EAE in C57BL/6 mice; assay: Chronic EAE mouse model (MOG35-55 immunization), daily clinical score and body weight; format: in vivo; design: key to Delay in onset of the disease / Reduction in severity of the disease / Reduction in body weight loss: +++: high level improvement; ++: moderate improvement; +: small improvement; −: no improvement; details: for Delay in onset of the disease / Reduction in body weight loss / Reduction in severity of the disease: average overall effects on the EAE model, i.p.
Excerpt: The aim of this study was to verify the effectiveness of compounds in a chronic mouse animal model of EAE. EAE is a good proof-of-principle model of neurodegeneration since it encompasses degeneration or destruction of practically all the cells in the central nervous system, includes most major immunomodulatory components, and is able to maintain normal innate regenerative functions in the animal. This is a standard model (Antel J P et al., J Neurosci Res. 1997, 50: 345-353) used mainly to mimic the course evolution of Multiple Sclerosis (MS) in humans, and is commonly used for studying disease mechanisms and testing potential therapies. EAE is induced by immunization with myelin proteins, leading to development of myelin-specific T cells. These autoreactive T cells traffic into CNS parenchyma where they initiate an inflammatory cascade through recruitment of other cells such as monocytes and neutrophils. Accumulation of immune cells within CNS leads to myelin damage, axonal loss and clinical deficit in affected animals. EAE can be induced in a variety of species and strains of animals [mice, Rat, marmoset monkey, rhesus macaques] using various CNS antigens [Myelin Oligodendrocyte Glycoprotein (MOG), proteolipid protein (PLP) and myelin basic protein (MBP)]. Seven to 8 week old female C57BL/6 mice were purchased from Charles River Laboratories, and housed at MISPRO™ animal facility for one week before experimentation for adaptation to the new environment. All proper animal experimentation and ethics approvals were obtained prior to the start of any experiments. Mice were immunized subcutaneously with 100 μg of MOG35-55 (Sheldon Biotechnology Centre, McGill University) in CFA containing 5 mg/ml of desiccated (killed and dried) Mycobacterium tuberculosis H37Ra (Difco, Inc), at two sites on the back. The mice were then injected with 200 ng of pertussis toxin (List Biological Laboratories, Inc) in PBS intraperitoneally on days 0 and 2 using 25 gauge needles and scored daily using an EAE clinical scale as detailed below (Touil T et al., J Neurol Sci. 2008, 271:191-202; Antel J P et al., 1997, supra; Owens T et al., Curr Pharm Des. 2005, 1:1031-1037).
EAE was clinically assessed throughout the experiments by daily scoring using a scale from 0 to 5 as follows: partial limp tail, 0.5; full limp tail, 1; limp tail and waddling gait, 1.5; paralysis of one hind limb, 2; paralysis of one hind limb and partial paralysis of other hind limb, 2.5; paralysis of both hind limbs, 3; ascending paralysis, 3.5; paralysis of trunk, 4; moribund, 4.5; death, 5. In all the EAE models a body weight loss is always associated with the clinical signs. This body weight loss is associated with the loss of the function and the paralysis of the muscle (atrophy inducing loss of weight). For animals showing a clinical sign of 2 or more, the food and the water were presented inside the cage to facilitate eating and drinking.
At the onset of clinical signs of EAE, the mice were treated with 200 μl of Compound 51, 53, 57, 59, 101, 104, 105, 111 or 123 dissolved in 2.5% Dimethyl sulfoxide (DMSO) in PBS, while placebo groups were treated with 2.5% Dimethyl sulfoxide (DMSO) in PBS only, by intraperitoneal injection at different time of the clinical evolution.

[3] = target: Caspase-9 (Homo sapiens (Human), UniProt P55211); assay: Fluorometric enzymatic assay, active recombinant Caspase-9; details: for IC50: read-out: IC50 values (μM) Caspase-9, 10-point titration 0.1 nM to 3.3 μM, 30-minute incubation at 37° C.; for inhibitory activity towards Caspase-9: FIG. 5
Caspase-9, sequence (P55211 whole entry, looked up, change not shown): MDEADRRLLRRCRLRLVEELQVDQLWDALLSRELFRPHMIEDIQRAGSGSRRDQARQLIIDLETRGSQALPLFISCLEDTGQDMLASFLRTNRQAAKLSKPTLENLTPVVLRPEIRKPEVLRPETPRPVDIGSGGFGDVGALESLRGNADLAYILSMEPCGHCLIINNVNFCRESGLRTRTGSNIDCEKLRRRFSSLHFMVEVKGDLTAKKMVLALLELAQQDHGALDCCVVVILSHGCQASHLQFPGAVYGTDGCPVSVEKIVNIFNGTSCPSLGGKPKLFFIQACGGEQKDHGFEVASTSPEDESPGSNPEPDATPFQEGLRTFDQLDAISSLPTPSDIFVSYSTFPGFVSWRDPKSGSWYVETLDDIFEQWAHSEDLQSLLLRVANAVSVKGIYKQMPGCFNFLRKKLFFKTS
Caspase-9, sequence (P55211 whole entry, looked up, change not shown): as above
Procedure: as §3

[4] = target: Caspase-10 (Homo sapiens (Human), UniProt Q92851); assay: Fluorometric enzymatic assay, active recombinant Caspase-10; details: for inhibitory activity towards Caspase-10: FIG. 5
Caspase-10, sequence (Q92851 220-415): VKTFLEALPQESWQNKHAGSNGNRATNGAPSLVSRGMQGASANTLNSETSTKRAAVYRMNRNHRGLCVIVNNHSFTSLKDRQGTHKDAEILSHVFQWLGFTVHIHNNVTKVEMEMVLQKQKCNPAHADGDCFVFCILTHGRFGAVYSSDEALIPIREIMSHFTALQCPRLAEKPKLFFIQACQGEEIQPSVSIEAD
Caspase-10, sequence (Q92851 416-521): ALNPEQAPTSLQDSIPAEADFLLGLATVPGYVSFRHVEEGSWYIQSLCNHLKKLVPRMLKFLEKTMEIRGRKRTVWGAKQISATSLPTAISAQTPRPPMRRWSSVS
Procedure: as §3

[5] = target: Caspase-7 (Homo sapiens (Human), UniProt P55210); assay: Fluorometric enzymatic assay, active recombinant Caspase-7
Caspase-7, sequence (P55210 whole entry, looked up): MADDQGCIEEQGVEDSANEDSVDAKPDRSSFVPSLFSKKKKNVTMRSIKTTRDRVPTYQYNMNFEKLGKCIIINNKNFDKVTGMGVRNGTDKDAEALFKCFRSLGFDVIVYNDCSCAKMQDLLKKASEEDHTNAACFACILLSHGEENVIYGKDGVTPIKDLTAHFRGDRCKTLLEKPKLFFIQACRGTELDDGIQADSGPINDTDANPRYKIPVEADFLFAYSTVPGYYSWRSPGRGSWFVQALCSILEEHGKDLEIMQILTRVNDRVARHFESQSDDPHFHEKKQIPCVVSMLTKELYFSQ
Caspase-7, sequence (P55210 whole entry, looked up): as above
Procedure: as §3

[6] = target: Caspase-1 (Homo sapiens (Human), UniProt P29466); assay: Fluorometric enzymatic assay, active recombinant Caspase-1
Caspase-1, sequence (P29466 whole entry, looked up): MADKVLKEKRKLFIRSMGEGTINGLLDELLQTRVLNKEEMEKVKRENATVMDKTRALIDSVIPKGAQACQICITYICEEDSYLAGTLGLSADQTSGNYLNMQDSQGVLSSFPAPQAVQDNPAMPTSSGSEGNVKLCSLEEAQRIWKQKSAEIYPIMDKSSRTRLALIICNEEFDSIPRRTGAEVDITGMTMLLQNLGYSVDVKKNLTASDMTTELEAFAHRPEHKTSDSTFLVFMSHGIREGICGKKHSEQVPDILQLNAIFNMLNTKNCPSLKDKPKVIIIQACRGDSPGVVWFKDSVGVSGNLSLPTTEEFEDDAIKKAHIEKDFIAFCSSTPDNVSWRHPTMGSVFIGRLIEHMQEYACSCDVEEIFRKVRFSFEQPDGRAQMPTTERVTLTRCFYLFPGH
Caspase-1, sequence (P29466 whole entry, looked up): as above
Procedure: as §3

[7] = target: Caspase-8 (Homo sapiens (Human), UniProt Q14790); assay: Fluorometric enzymatic assay, active recombinant Caspase-8; format: biochemical
Caspase-8, sequence (Q14790 217-374): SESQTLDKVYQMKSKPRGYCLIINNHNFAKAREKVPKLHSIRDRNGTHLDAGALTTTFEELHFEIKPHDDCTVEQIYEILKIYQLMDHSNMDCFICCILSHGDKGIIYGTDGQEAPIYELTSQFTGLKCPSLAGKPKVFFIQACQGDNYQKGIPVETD
Caspase-8, sequence (Q14790 385-479): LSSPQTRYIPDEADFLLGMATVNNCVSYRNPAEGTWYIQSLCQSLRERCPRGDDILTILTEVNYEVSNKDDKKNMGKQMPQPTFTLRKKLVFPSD
Procedure: (§1) . In brief, each compound was serially diluted for a final test concentration range of 0.1 nM to 3.3 μM (10-point titration). Each active recombinant Caspase (Active Recombinant Caspase Set IV™ (BioVision, Cat# K233-10-25)) was added to the respective wells of the 96-well High Efficiency™ plates (Molecular Devices, Cat#75-000-0005), followed by the addition of the diluted test compounds. DMSO (Final=1%) or Z-VAD-FMK (Caspase-Family Inhibitor, Z-VAD-FMK (BioVision, Cat#1010-100), Final concentration=20 uM) was added in the designated wells as a background control or positive inhibitor control respectively. Each dilution of the test compounds was tested in duplicates, whereas the DMSO or Z-VAD-FMK controls were tested in triplicates. The synthetic peptide substrate specific for each Caspase (BioVision) was then added to the respective wells, which when cleaved by the active caspase releases free AFC that can be quantified by fluorometry. After a 30-minute incubation at 37° C., the plates were read using the Flexstation 3™ with a 400 nm excitation filter and a 505 nm emission filter (cutoff at 495 nm). The inhibition efficiency and the IC50 values of the test compounds were then determined by comparing the fluorescence intensity (FI) of the test compounds with that of the DMSO control.
(§2) The SoftMax Pro Software™ (v5.2 rev C, Molecular Devices) was used for data analysis. The % Inhibition is calculated by: % Inhibition=[FI(DMSO)−FI(test sample)/FI(DMSO)]×100. The % Inhibition vs. Log(concentration) was plotted, and the curve was fitted using the 5-parameter fit of the software.

[8] = target: Caspase-6 (Homo sapiens (Human), UniProt P55212); assay: Fluorometric enzymatic assay, active recombinant Caspase-6; format: biochemical
Caspase-6, sequence (P55212 24-179): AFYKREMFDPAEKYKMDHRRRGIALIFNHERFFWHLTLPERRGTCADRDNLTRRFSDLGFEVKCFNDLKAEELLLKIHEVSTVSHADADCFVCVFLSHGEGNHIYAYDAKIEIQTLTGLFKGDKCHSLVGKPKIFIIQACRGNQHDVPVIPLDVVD
Caspase-6, sequence (P55212 194-293): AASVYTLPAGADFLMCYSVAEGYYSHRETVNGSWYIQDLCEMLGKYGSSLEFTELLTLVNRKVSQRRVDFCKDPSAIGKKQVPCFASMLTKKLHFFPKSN
Procedure: as §1, §2

[9] = target: Caspase-5 (Homo sapiens (Human), UniProt P51878); assay: Fluorometric enzymatic assay, active recombinant Caspase-5; format: biochemical
Caspase-5, sequence (P51878 whole entry, looked up): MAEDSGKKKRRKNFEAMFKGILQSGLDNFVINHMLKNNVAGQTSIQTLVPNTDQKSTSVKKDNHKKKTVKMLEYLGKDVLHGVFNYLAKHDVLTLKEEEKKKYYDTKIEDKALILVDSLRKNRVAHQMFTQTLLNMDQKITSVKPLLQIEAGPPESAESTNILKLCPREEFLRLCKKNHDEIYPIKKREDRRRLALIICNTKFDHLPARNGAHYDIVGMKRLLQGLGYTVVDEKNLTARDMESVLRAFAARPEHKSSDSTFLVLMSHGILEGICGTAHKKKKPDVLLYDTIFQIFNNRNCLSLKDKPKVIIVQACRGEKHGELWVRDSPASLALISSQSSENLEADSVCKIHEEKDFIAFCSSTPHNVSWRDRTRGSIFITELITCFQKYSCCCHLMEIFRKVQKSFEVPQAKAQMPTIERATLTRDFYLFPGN
Caspase-5, sequence (P51878 whole entry, looked up): as above
Procedure: as §1, §2

[10] = target: Caspase-2 (Homo sapiens (Human), UniProt P42575); assay: Fluorometric enzymatic assay, active recombinant Caspase-2; format: biochemical
Caspase-2, sequence (P42575 170-325): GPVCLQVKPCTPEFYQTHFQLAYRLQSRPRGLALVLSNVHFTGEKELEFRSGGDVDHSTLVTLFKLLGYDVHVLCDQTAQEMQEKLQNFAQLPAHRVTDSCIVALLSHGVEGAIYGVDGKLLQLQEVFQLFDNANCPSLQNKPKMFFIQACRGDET
Caspase-2, sequence (P42575 348-452): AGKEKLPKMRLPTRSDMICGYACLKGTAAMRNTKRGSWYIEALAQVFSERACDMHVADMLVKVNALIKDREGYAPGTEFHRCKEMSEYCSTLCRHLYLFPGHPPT
Procedure: as §1, §2

[11] = target: Caspase-3 (Homo sapiens (Human), UniProt P42574); assay: Fluorometric enzymatic assay, active recombinant Caspase-3; details: for inhibitory activity towards Caspase-3: FIG. 5; for IC50: read-out: IC50 values (μM) Caspase-3, 10-point titration 0.1 nM to 3.3 μM, 30-minute incubation at 37° C.
Caspase-3, sequence (P42574 29-175): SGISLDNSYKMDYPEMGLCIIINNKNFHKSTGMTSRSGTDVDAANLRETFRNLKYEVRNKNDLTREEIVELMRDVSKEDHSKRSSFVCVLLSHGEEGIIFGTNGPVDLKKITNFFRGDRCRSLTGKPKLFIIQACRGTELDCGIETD
Caspase-3, sequence (P42574 176-277): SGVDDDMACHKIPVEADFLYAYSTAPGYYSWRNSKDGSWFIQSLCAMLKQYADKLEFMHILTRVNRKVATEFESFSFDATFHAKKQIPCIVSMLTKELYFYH
Procedure: as §3

[12] = test system: Caspase-1 to -10; assay: Fluorometric caspase enzymatic assays, positive inhibitor control (all experiments); format: biochemical; details: Final concentration=20 uM
Procedure: as §1, with “In” for “. In”, “control. […]” for “control.”

[13] = read-out: IC50 values (μM) Caspase-4, 10-point titration 0.1 nM to 3.3 μM, 30-minute incubation at 37° C.
[14] = FIG. 3, i.p. from day 14 to 19 post immunization, versus placebo
[15] = read-out: IC50 values (μM) Caspase-10, 10-point titration 0.1 nM to 3.3 μM, 30-minute incubation at 37° C.
[16] = read-out: IC50 values (μM) Caspase-7, 10-point titration 0.1 nM to 3.3 μM, 30-minute incubation at 37° C.
[17] = read-out: IC50 values (μM) Caspase-1, 10-point titration 0.1 nM to 3.3 μM, 30-minute incubation at 37° C.
[18] = 10-point titration 0.1 nM to 3.3 μM, 30-minute incubation at 37° C., read-out: IC50 values (μM) Caspase-8
[19] = 10-point titration 0.1 nM to 3.3 μM, 30-minute incubation at 37° C., read-out: IC50 values (μM) Caspase-6
[20] = 10-point titration 0.1 nM to 3.3 μM, 30-minute incubation at 37° C., read-out: IC50 values (μM) Caspase-5
[21] = 10-point titration 0.1 nM to 3.3 μM, 30-minute incubation at 37° C., read-out: IC50 values (μM) Caspase-2

Caspase-4, sequence (P49662 81-270): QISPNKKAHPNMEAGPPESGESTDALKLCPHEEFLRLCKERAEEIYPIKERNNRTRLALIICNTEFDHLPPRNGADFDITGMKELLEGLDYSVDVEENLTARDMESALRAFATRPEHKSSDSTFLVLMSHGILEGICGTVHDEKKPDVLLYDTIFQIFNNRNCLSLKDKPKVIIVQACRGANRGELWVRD
Caspase-4, sequence (P49662 290-377): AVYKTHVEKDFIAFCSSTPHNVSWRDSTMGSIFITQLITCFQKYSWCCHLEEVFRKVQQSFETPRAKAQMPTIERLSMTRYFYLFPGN

With `CC(C)[C@H](NC(=O)[C@H](Cc1cccc2ccccc12)NC(=O)[C@H](CC(=O)O)NC(=O)OCc1ccccc1)C(=O)N[C@H](/C=C/S(C)(=O)=O)CC(=O)O` [Compound 111, Z-Asp-3-(1-naphtyl)-L-alanine-Val-Aspmethyl vinyl sulfone] the IC50 [1, 13] was greater than 3.33 µM, the “effects on the clinical course of EAE” value [2, 14] was “ameliorating effects” and the “Delay in onset of the disease” value [2] was “+”. The “Reduction in body weight loss” value [2] was “++”, the “Reduction in severity of the disease” value [2] was “++” and the IC50 [3] was greater than 3.33 µM. For the same molecule, the IC50 [4, 15] was greater than 3.33 µM, the IC50 [5, 16] was greater than 3.33 µM and the IC50 [6, 17] was greater than 3.33 µM. It also gave an IC50 [7, 18] greater than 3.33 µM, an IC50 [8, 19] greater than 3.33 µM and an IC50 [9, 20] greater than 3.33 µM. The IC50 [10, 21] was greater than 3.33 µM, the “inhibitory activity towards Caspase-3” value [11] was “high inhibitory activity” and the IC50 [11] was 0.08 µM.
In the case of `CC(C)[C@H](NC(=O)[C@@H](NC(=O)[C@H](CC(=O)O)NC(=O)OCc1ccccc1)c1ccccc1)C(=O)N[C@H](/C=C(\Cl)S(C)(=O)=O)CC(=O)O` [Compound 123, Z-Asp-phenylglycine-Val-Asp-achlorovinyl methylsulfone], the IC50 [1, 13] is reported as greater than 3.33 µM, the “Loss of body weight” value [2, 14] is reported as “less than in the placebo group” and the “effects on the clinical course of EAE” value [2, 14] is reported as “ameliorating effects”. For the same molecule, the “Delay in onset of the disease” value [2] was “+”, the “Reduction in body weight loss” value [2] was “+++” and the “Reduction in severity of the disease” value [2] was “++”. The “inhibitory activity towards Caspase-9” value [3] was “inhibitory activity”, the IC50 [3] was 2.8 µM and the “inhibitory activity towards Caspase-10” value [4] was “inhibitory activity”. For the same molecule, the IC50 [4, 15] was 2 µM, the “inhibitory activity towards Caspase-7” value ([5]; FIG. 5) was “high inhibitory activity” and the IC50 [5, 16] was 0.5 µM. It also gave an IC50 [6, 17] greater than 3.33 µM, an IC50 [7, 18] greater than 3.33 µM and an IC50 [8, 19] greater than 3.33 µM. For the same molecule, the IC50 [9, 20] was greater than 3.33 µM, the IC50 [10, 21] was greater than 3.33 µM and the “inhibitory activity towards Caspase-3” value [11] was “high inhibitory activity”. For the same molecule, the IC50 [11] was 0.06 µM.
`COC(=O)CC[C@H](NC(=O)[C@H](CC(=O)OC)NC(=O)OCc1ccccc1)C(=O)N[C@H](C(=O)N[C@@H](CC(=O)OC)C(=O)CF)C(C)C` [Z-DEVD-FMK, z-D(OMe)E(OMe)VD(OMe)FMK, reference compound] was tested, and the IC50 [1] was 2.5 µM, the “inhibitory activity towards Caspase-4” value ([1]; FIG. 5) was “inhibitory activity” and the “inhibitory activity towards Caspase-9” value [3] was “inhibitory activity”. For the same molecule, the IC50 [4] was 2.7 µM, the “inhibitory activity towards Caspase-10” value [4] was “inhibitory activity” and the IC50 [5] was greater than 3.33 µM. For the same molecule, the IC50 [6] was 0.7 µM, the “inhibitory activity towards Caspase-1” value ([6]; FIG. 5) was “inhibitory activity” and the IC50 [7] was 1.6 µM. The “inhibitory activity towards Caspase-8” value ([7]; FIG. 5) was “inhibitory activity”, the IC50 [8] was greater than 3.33 µM and the “inhibitory activity towards Caspase-6” value ([8]; FIG. 5) was “negligible”. The IC50 [9] was greater than 3.33 µM, the “inhibitory activity towards Caspase-5” value ([9]; FIG. 5) was “negligible” and the IC50 [10] was greater than 3.33 µM. For the same molecule, the “inhibitory activity towards Caspase-2” value ([10]; FIG. 5) was “negligible”.
In the case of `COC(=O)C[C@H](NC(=O)[C@H](C)NC(=O)[C@@H](NC(=O)OCc1ccccc1)C(C)C)C(=O)CF` [Z-VAD-FMK, benzyloxycarbonyl-Val-Ala-Asp-fluoromethylketone] (Cbz-Val-Ala-Asp(OMe)-CH2F), the “inhibition by positive inhibitor control” value [12] is reported as greater than 50%.
